Assay results from patent US20140193910A1, “METHODS FOR PRODUCING PANCREATIC PRECURSOR CELLS AND USES THEREOF” (priority 2011, published 2014).

Legend:
Assay type in all cases: cell-based
[1] = tested on: human pancreatic stem cells; assay: Cell clones from second digestion of pancreas tissue, DMEM-10% DFBS + GrNP supplementation; conditions: for #clones after 1 passage, Method 1 / #clones after 1 passage, Method 2: 1 mM supplement, second digestion; for Enhancement of clonal cell proliferation: Method 1 and Method 2
Protocol: (§1) More specifically, after mincing of intact pancreatic tissue (harvested by the National Disease Research Interchange from donors within 4 hours of death), the pancreatic tissue was digested with liberase H (Roche). Two successive digestions of 20 and 30 minutes were performed at 37° C. in serum-free Dulbecco's modified Eagle's medium (DMEM) containing 1 mg/mL LIBERASE H. The cells and cell clusters released after each of these digestions were cultured.
In one embodiment of the methods described herein, termed herein as “Method 1,” twice digested pancreas digestion products can be cultured in DMEM supplemented with 10% dialyzed fetal bovine serum (DFBS).
(§2) In another embodiment of the methods described herein, termed herein as “Method 2,” the same two successive digestion procedure can be used, but the final tissue fragments remaining after the second digestion can also be cultured independently. For this embodiment of the methods, CMRL-1066 medium can be used as a second base culture medium in parallel with DMEM for all cultured pancreatic cell and tissue preparations. In one such example of Method 2, CMRL-1066 medium was supplemented with 10% DFBS and 2 mM L-glutamine and subdivided for the same GrNP supplementations as indicated for DMEM-10% DFBS medium in Method 1.

[2] = tested on: human pancreatic stem cells; assay: Population doubling analysis of pooled polyclonal strains (Method 2, CMRL-1066)
Protocol: Growth properties of human pancreatic stem cell strains. Four weeks after replating, clones were picked and expanded. Cells left after clonal isolations from the CMRL-1066 conditions were pooled and grown. They were trypsinized and counted on a regular basis, and population doublings were calculated accordingly. The number of clones detected for each condition is represented on the top two histograms. The bottom histogram represents the percentage of harvested clones that continued their expansion after isolation.
After isolating clonal cell colonies produced by the embodiment of the methods described herein termed Method 2 (Table 2) for expansion, the remaining unselected cell clones were pooled and expanded as well (i.e., polyclonal strains). Population doubling analyses were performed based on the passage of the expansion pool cultures.

[3] = tested on: human pancreatic stem cells; assay: Cell clones from twice-digested fragments of pancreas tissue, CMRL-1066-10% DFBS + GrNP supplementation; conditions: for Clone expansion rate (percent of isolated clones that could be expanded to full cultures) / #clones after 1 passage, Method 2: 1 mM supplement; for Clone expansion rate (percent of isolated clones that could be expanded to full cultures) / #clones after 1 passage, Method 2 / Increase in number of clones (primary cell colonies) over control: CMRL-1066-10% DFBS; for #clones after 1 passage, Method 2: twice-digested tissue fragments; for Increase in number of clones (primary cell colonies) over control: Method 2; for Increase in proportion of clones that could be further expanded to full cultures: CMRL-1066 medium, tissue fragments, versus control
Protocol: as §1, §2
Accordingly, in some embodiments of the methods described herein, the culture medium comprise Xn, Xs, or a combination thereof.

Row | SMILES | #clones after 1 passage, Method 1 [1] | #clones after 1 passage, Method 2 [1] | Enhancement of clonal cell proliferation [1] | Cell expansion corresponding to the population doublings ([2]; polyclonal strains) [fold] | Population doublings of polyclonal strains ([2]; supplemented medium, expansion pool cultures) [population doublings] | Clone expansion rate (percent of isolated clones that could be expanded to full cultures) [3] [%] | #clones after 1 passage, Method 2 [3] | Increase in number of clones (primary cell colonies) over control [3] | Increase in proportion of clones that could be further expanded to full cultures [3] [fold]
1 | O=c1[nH]cnc2nc[nH]c12 [Hx, hypoxanthine] | 22 | 13 | more effective in enhancing clonal cell proliferation than Xn |  |  |  |  |  | 
2 | O=c1[nH]c(=O)c2[nH]cnc2[nH]1 [Xn, xanthine] | 3 | 5 | not statistically different than control | ~1e+06 | 20 | 13 | 54 | approximately 50% | 3.4
3 | O=c1[nH]c(=O)c2ncn([C@@H]3O[C@H](CO)[C@@H](O)[C@H]3O)c2[nH]1 [Xs, xanthosine] | 13 | 12 | more effective in enhancing clonal cell proliferation than Xn |  |  | 10 | 59 | approximately 50% | 2.6
